Legend:
[1] = tested on: Caco-2 cell line; test: Cytotoxicity MTS assay, Caco-2 cell line; format: cell-based; conditions: for OD490 Mean / OD490 Well 1 / OD490 Well 2 / OD490 Well 3: Caco-2 cell line
Procedure, shortened: (§1)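 Cells seeded at 1000 per well, grown 24 h, then exposed to compound (0.5–100 µM final) for 24 h with 0.025% DMSO blank. MTS reagent added for 2 h at 37 °C, absorbance read at 490 nm; IC50 from non-linear regression of % viability versus concentration, three independent duplicate experiments.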

[2] = tested on: T24 cell line; test: Cytotoxicity MTS assay, T24 cell line; format: cell-based; conditions: for OD490 Mean / OD490 Well 1 / OD490 Well 2 / OD490 Well 3: T24 cell line;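 for OD490 Mean: blank control wells received 0.025% DMSO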;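 for OD490 Well 1: blank control wells received 0.025% DMSO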;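 for OD490 Well 2: blank control wells received 0.025% DMSO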;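 for OD490 Well 3: blank control wells received 0.025% DMSO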
Procedure, shortened: as §1

Structure (SMILES): CCOC(=O)C1=C(C)NC(=S)NC1c1cccc(O)c1 (centres unmarked) [Monastrol, monastrol, reference compound]
- OD490 Mean ([1]; 0.5μM, first assay): 0.6317
- OD490 Well 1 ([1]; 0.5μM, first assay): 0.6883
- OD490 Well 2 ([1]; 0.5μM, first assay): 0.6260
- OD490 Well 3 ([1]; 0.5μM, first assay): 0.5808
- OD490 Mean ([1]; 0.5μM, second assay): 0.6461
- OD490 Well 1 ([1]; 0.5μM, second assay): 0.6307
- OD490 Well 2 ([1]; 0.5μM, second assay): 0.6567
- OD490 Well 3 ([1]; 0.5μM, second assay): 0.6508
- OD490 Mean ([1]; 0.5μM, third assay): 0.6299
- OD490 Well 1 ([1]; 0.5μM, third assay): 0.6325
- OD490 Well 2 ([1]; 0.5μM, third assay): 0.6000
- OD490 Well 3 ([1]; 0.5μM, third assay): 0.6531
- OD490 Mean ([1]; 1μM, first assay): 0.6316
- OD490 Well 1 ([1]; 1μM, first assay): 0.6697
- OD490 Well 2 ([1]; 1μM, first assay): 0.6037
- OD490 Well 3 ([1]; 1μM, first assay): 0.6213
- OD490 Mean ([1]; 1μM, second assay): 0.6874
- OD490 Well 1 ([1]; 1μM, second assay): 0.6746
- OD490 Well 2 ([1]; 1μM, second assay): 0.7532
- OD490 Well 3 ([1]; 1μM, second assay): 0.6345
- OD490 Mean ([1]; 1μM, third assay): 0.6466
- OD490 Well 1 ([1]; 1μM, third assay): 0.6332
- OD490 Well 2 ([1]; 1μM, third assay): 0.6854
- OD490 Well 3 ([1]; 1μM, third assay): 0.6211
- OD490 Mean ([1]; 10μM, first assay): 0.6065
- OD490 Well 1 ([1]; 10μM, first assay): 0.6414
- OD490 Well 2 ([1]; 10μM, first assay): 0.6303
- OD490 Well 3 ([1]; 10μM, first assay): 0.5477
- OD490 Mean ([1]; 10μM, second assay): 0.6609
- OD490 Well 1 ([1]; 10μM, second assay): 0.6953
- OD490 Well 2 ([1]; 10μM, second assay): 0.6962
- OD490 Well 3 ([1]; 10μM, second assay): 0.5912
- OD490 Mean ([1]; 10μM, third assay): 0.5909
- OD490 Well 1 ([1]; 10μM, third assay): 0.6012
- OD490 Well 2 ([1]; 10μM, third assay): 0.6583
- OD490 Well 3 ([1]; 10μM, third assay): 0.5132
- OD490 Mean ([1]; 25μM, first assay): 0.5366
- OD490 Well 1 ([1]; 25μM, first assay): 0.5485
- OD490 Well 2 ([1]; 25μM, first assay): 0.5284
- OD490 Well 3 ([1]; 25μM, first assay): 0.5329
- OD490 Mean ([1]; 25μM, second assay): 0.5966
- OD490 Well 1 ([1]; 25μM, second assay): 0.5969
- OD490 Well 2 ([1]; 25μM, second assay): 0.6213
- OD490 Well 3 ([1]; 25μM, second assay): 0.5715
- OD490 Mean ([1]; 25μM, third assay): 0.5678
- OD490 Well 1 ([1]; 25μM, third assay): 0.5784
- OD490 Well 2 ([1]; 25μM, third assay): 0.5810
- OD490 Well 3 ([1]; 25μM, third assay): 0.5439
- OD490 Mean ([1]; 50μM, first assay): 0.4955
- OD490 Well 1 ([1]; 50μM, first assay): 0.4127
- OD490 Well 2 ([1]; 50μM, first assay): 0.5627
- OD490 Well 3 ([1]; 50μM, first assay): 0.5110
- OD490 Mean ([1]; 50μM, second assay): 0.5572
- OD490 Well 1 ([1]; 50μM, second assay): 0.594
- OD490 Well 2 ([1]; 50μM, second assay): 0.5177
- OD490 Well 3 ([1]; 50μM, second assay): 0.5598
- OD490 Mean ([1]; 50μM, third assay): 0.5174
- OD490 Well 1 ([1]; 50μM, third assay): 0.5287
- OD490 Well 2 ([1]; 50μM, third assay): 0.5021
- OD490 Well 3 ([1]; 50μM, third assay): 0.5214
- OD490 Mean ([1]; 100μM, first assay): 0.4461
- OD490 Well 1 ([1]; 100μM, first assay): 0.4497
- OD490 Well 2 ([1]; 100μM, first assay): 0.4701
- OD490 Well 3 ([1]; 100μM, first assay): 0.4184
- OD490 Mean ([1]; 100μM, second assay): 0.5109
- OD490 Well 1 ([1]; 100μM, second assay): 0.5213
- OD490 Well 2 ([1]; 100μM, second assay): 0.5306
- OD490 Well 3 ([1]; 100μM, second assay): 0.4809
- OD490 Mean ([1]; 100μM, third assay): 0.4670
- OD490 Well 1 ([1]; 100μM, third assay): 0.4321
- OD490 Well 2 ([1]; 100μM, third assay): 0.4767
- OD490 Well 3 ([1]; 100μM, third assay): 0.4922
- IC50 ([1]; Homo sapiens, Caco-2, MTS assay, 24 h exposure): 112 µM
- IC50 ([2]; Homo sapiens, T-24, MTS assay, 24 h exposure): 129 µM
- OD490 Mean ([2]; 0.5μM, first assay): 1.5184
- OD490 Well 1 ([2]; 0.5μM, first assay): 1.3936
- OD490 Well 2 ([2]; 0.5μM, first assay): 1.6757
- OD490 Well 3 ([2]; 0.5μM, first assay): 1.4858
- OD490 Mean ([2]; 0.5μM, second assay): 1.7880
- OD490 Well 1 ([2]; 0.5μM, second assay): 1.9582
- OD490 Well 2 ([2]; 0.5μM, second assay): 1.7425
- OD490 Well 3 ([2]; 0.5μM, second assay): 1.6632
- OD490 Mean ([2]; 0.5μM, third assay): 1.7701
- OD490 Well 1 ([2]; 0.5μM, third assay): 1.9582
- OD490 Well 2 ([2]; 0.5μM, third assay): 1.6852
- OD490 Well 3 ([2]; 0.5μM, third assay): 1.6669
- OD490 Mean ([2]; 1μM, first assay): 1.8525
- OD490 Well 1 ([2]; 1μM, first assay): 1.8866
- OD490 Well 2 ([2]; 1μM, first assay): 1.8580
- OD490 Well 3 ([2]; 1μM, first assay): 1.8130
- OD490 Mean ([2]; 1μM, second assay): 1.7956
- OD490 Well 1 ([2]; 1μM, second assay): 1.8475
- OD490 Well 2 ([2]; 1μM, second assay): 1.7952
- OD490 Well 3 ([2]; 1μM, second assay): 1.7442
- OD490 Mean ([2]; 1μM, third assay): 1.6875
- OD490 Well 1 ([2]; 1μM, third assay): 1.4752
- OD490 Well 2 ([2]; 1μM, third assay): 1.8852
- OD490 Well 3 ([2]; 1μM, third assay): 1.7020
- OD490 Mean ([2]; 10μM, first assay): 1.8245
- OD490 Well 1 ([2]; 10μM, first assay): 1.8141
- OD490 Well 2 ([2]; 10μM, first assay): 1.7506
- OD490 Well 3 ([2]; 10μM, first assay): 1.9088
- OD490 Mean ([2]; 10μM, second assay): 1.6766
- OD490 Well 1 ([2]; 10μM, second assay): 1.5874
- OD490 Well 2 ([2]; 10μM, second assay): 1.5998
- OD490 Well 3 ([2]; 10μM, second assay): 1.8425
- OD490 Mean ([2]; 10μM, third assay): 1.6451
- OD490 Well 1 ([2]; 10μM, third assay): 1.7425
- OD490 Well 2 ([2]; 10μM, third assay): 1.6625
- OD490 Well 3 ([2]; 10μM, third assay): 1.5302
- OD490 Mean ([2]; 25μM, first assay): 1.7708
- OD490 Well 1 ([2]; 25μM, first assay): 1.7726
- OD490 Well 2 ([2]; 25μM, first assay): 1.7434
- OD490 Well 3 ([2]; 25μM, first assay): 1.7965
- OD490 Mean ([2]; 25μM, second assay): 1.7004
- OD490 Well 1 ([2]; 25μM, second assay): 1.7416
- OD490 Well 2 ([2]; 25μM, second assay): 1.7723
- OD490 Well 3 ([2]; 25μM, second assay): 1.5874
- OD490 Mean ([2]; 25μM, third assay): 1.7296
- OD490 Well 1 ([2]; 25μM, third assay): 1.7711
- OD490 Well 2 ([2]; 25μM, third assay): 1.6854
- OD490 Well 3 ([2]; 25μM, third assay): 1.7324
- OD490 Mean ([2]; 50μM, first assay): 1.5876
- OD490 Well 1 ([2]; 50μM, first assay): 1.5372
- OD490 Well 2 ([2]; 50μM, first assay): 1.6410
- OD490 Well 3 ([2]; 50μM, first assay): 1.5845
- OD490 Mean ([2]; 50μM, second assay): 1.6611
- OD490 Well 1 ([2]; 50μM, second assay): 1.6325
- OD490 Well 2 ([2]; 50μM, second assay): 1.6666
- OD490 Well 3 ([2]; 50μM, second assay): 1.6841
- OD490 Mean ([2]; 50μM, third assay): 1.4371
- OD490 Well 1 ([2]; 50μM, third assay): 1.3024
- OD490 Well 2 ([2]; 50μM, third assay): 1.5270
- OD490 Well 3 ([2]; 50μM, third assay): 1.4820
- OD490 Mean ([2]; 100μM, first assay): 1.3979
- OD490 Well 1 ([2]; 100μM, first assay): 1.3668
- OD490 Well 2 ([2]; 100μM, first assay): 1.4841
- OD490 Well 3 ([2]; 100μM, first assay): 1.3428
- OD490 Mean ([2]; 100μM, second assay): 1.3537
- OD490 Well 1 ([2]; 100μM, second assay): 1.3658
- OD490 Well 2 ([2]; 100μM, second assay): 1.3365
- OD490 Well 3 ([2]; 100μM, second assay): 1.3587
- OD490 Mean ([2]; 100μM, third assay): 1.3785
- OD490 Well 1 ([2]; 100μM, third assay): 1.4550
- OD490 Well 2 ([2]; 100μM, third assay): 1.3885
- OD490 Well 3 ([2]; 100μM, third assay): 1.2920
